# From US7488740B2, “Substituted quinolin-4-ylamine analogues” (Neurogen Corporation, priority 2003, dated 2009)
# Biological target: T1, human capsaicin receptor (Homo sapiens, UniProt Q8NER1)
# T1 construct: A cDNA encoding full length human capsaicin receptor recited in U.S. Pat. No. 6,482,611 was subcloned in the plasmid pBK-CMV; expressed in transfected cells
# Experiment: Calcium mobilization assay (Example 6)
# Format: cell-based
# Conditions: concentration required to provide a 50% decrease in the fluorescence response of cells exposed to one IC50 of capsaicin
# Outline: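 HEK293 clonal lines stably expressing full-length human capsaicin receptor, Fluo-3 AM loaded in KRH buffer pH 7.4. Compounds (final 1-5 μM) preincubated 0.5-6 h at room temperature in the dark, then capsaicin added at its predetermined IC50 concentration. FLIPR calcium signal at 30-60 s; IC50 = antagonist concentration giving 50% decrease.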
# T1 sequence (Q8NER1 whole entry): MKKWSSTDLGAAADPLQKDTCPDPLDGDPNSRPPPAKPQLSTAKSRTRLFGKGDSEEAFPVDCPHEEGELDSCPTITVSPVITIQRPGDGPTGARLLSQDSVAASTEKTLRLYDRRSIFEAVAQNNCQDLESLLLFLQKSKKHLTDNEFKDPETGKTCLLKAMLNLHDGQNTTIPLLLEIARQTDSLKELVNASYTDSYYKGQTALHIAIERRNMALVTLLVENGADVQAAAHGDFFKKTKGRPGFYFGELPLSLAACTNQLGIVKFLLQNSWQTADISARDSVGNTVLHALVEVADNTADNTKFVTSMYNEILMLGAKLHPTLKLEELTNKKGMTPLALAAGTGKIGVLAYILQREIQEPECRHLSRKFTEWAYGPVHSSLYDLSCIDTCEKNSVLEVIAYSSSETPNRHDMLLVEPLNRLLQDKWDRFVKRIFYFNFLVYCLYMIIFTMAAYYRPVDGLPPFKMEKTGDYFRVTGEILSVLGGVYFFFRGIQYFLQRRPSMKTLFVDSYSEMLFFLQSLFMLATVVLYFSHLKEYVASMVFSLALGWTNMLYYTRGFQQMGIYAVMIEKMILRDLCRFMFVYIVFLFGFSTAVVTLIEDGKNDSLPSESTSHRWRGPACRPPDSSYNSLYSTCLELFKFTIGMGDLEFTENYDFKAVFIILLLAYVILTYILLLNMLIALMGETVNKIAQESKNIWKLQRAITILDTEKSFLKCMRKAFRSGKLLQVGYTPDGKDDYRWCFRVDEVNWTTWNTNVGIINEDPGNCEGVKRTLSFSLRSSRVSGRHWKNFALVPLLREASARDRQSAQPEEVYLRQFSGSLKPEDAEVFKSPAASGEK
row,SMILES,IC50 [µM]
1,"CC(C)COCc1cc(Nc2ccc(C#N)cn2)c2ccc(-c3ncccc3C(F)(F)F)nc2n1 [Compound 87, 6-({2-(isobutoxymethyl)-7-[3-(trifluoromethyl)pyridin-2-yl]-1,8-naphthyridin-4-yl}amino)nicotinonitrile]",≤ 1
2,"CC(C)COCc1cc(Nc2ccc(S(=O)(=O)C(F)(F)F)cc2)c2ccc(-c3ncccc3C(F)(F)F)nc2n1 [Compound 74, 2-(isobutoxymethyl)-7-[3-(trifluoromethyl)pyridin-2-yl]-N-{4-[(trifluoromethyl)sulfonyl]phenyl}-1,8-naphthyridin-4-amine]",≤ 1
3,"CC(C)COCc1cc(Nc2ccc(C(F)(F)F)cn2)c2ccc(-c3ncccc3C(F)(F)F)nc2n1 [Compound 44, 2-(isobutoxymethyl)-7-[3-(trifluoromethyl)pyridin-2-yl]-N-[5-(trifluoromethyl)pyridin-2-yl]-1,8-naphthyridin-4-amine]",≤ 1
4,"CC(C)COCc1cc(Nc2ccc(C(F)(F)F)cc2)c2ccc(-c3ncccc3C(F)(F)F)nc2n1 [Compound 7, 2-(isobutoxymethyl)-N-[4-(trifluoromethyl)phenyl]-7-[3-(trifluoromethyl)pyridin-2-yl]-1,8-naphthyridin-4-amine]",≤ 1
5,"Cc1cccnc1-c1ccc2c(Nc3ncc(C(F)(F)F)cn3)ccnc2n1 [Compound 137, 7-(3-methylpyridin-2-yl)-N-[5-(trifluoromethyl)pyrimidin-2-yl]-1,8-naphthyridin-4-amine]",≤ 1
6,"COCc1cc(Nc2ccc(C(F)(F)F)cc2)c2ccc(-c3ncccc3F)nc2n1 [Compound 62, 7-(3-fluoropyridin-2-yl)-2-(methoxymethyl)-N-[4-(trifluoromethyl)phenyl]-1,8-naphthyridin-4-amine]",≤ 1
7,"CC(C)COCc1cc(Nc2ccc(F)cc2)c2ccc(-c3ncccc3C(F)(F)F)nc2n1 [Compound 54, N-(4-fluorophenyl)-2-(isobutoxymethyl)-7-[3-(trifluoromethyl)pyridin-2-yl]-1,8-naphthyridin-4-amine]",≤ 1
8,"CCc1cc(Nc2ccc(C(F)(F)F)cn2)c2ccc(-c3ncccc3C(F)(F)F)nc2n1 [Compound 110, 2-ethyl-7-[3-(trifluoromethyl)pyridin-2-yl]-N-[5-(trifluoromethyl)pyridin-2-yl]-1,8-naphthyridin-4-amine]",≤ 1
9,"FC(F)(F)c1ccc(Nc2ccnc3nc(-c4ncccc4C(F)(F)F)ccc23)cc1 [Compound 35, N-[4-(trifluoromethyl)phenyl]-7-[3-(trifluoromethyl)pyridin-2-yl]-1,8--naphthyridin-4-amine]",≤ 1
10,"FC(F)(F)c1ccc(Nc2cc(CN3CCC3)nc3nc(-c4ncccc4C(F)(F)F)ccc23)cc1 [Compound 55, 2-(azetidin-1-ylmethyl)-N-[4-(trifluoromethyl)phenyl]-7-[3-(trifluoromethyl)pyridin-2-yl]-1,8-naphthyridin-4-amine]",≤ 1
11,"CC(C)CNCc1cc(Nc2ccc(C(F)(F)F)cc2)c2ccc(-c3ncccc3C(F)(F)F)nc2n1 [Compound 59, 2-[(isobutylamino)methyl]-N-[4-(trifluoromethyl)phenyl]-7-[3-(trifluoromethyl)pyridin-2-yl]-1,8-naphthyridin-4-amine]",≤ 1
12,"CC(C)c1cc(Nc2ccc(C#N)cn2)c2ccc(-c3ncccc3C(F)(F)F)nc2n1 [Compound 104, 6-({2-isopropyl-7-[3-(trifluoromethyl)pyridin-2-yl]-1,8-naphthyridin-4-yl}amino)nicotinonitrile]",≤ 1
13,"CC(C)(C)c1ccc(Nc2cc(N3CCCC3)nc3cc(-c4ncccc4C(F)(F)F)ccc23)cc1 [Compound 28, N-(4-tert-butylphenyl)-2-pyrrolidin-1-yl-7-[3-(trifluoromethyl)pyridin-2-yl]quinolin-4-amine]",≤ 1
14,"CCN(CC)Cc1cc(Nc2ccc(C(F)(F)F)cn2)c2ccc(-c3ncccc3C(F)(F)F)nc2n1 [Compound 94, 2-[(diethylamino)methyl]-7-[3-(trifluoromethyl)pyridin-2-yl]-N-[5-(trifluoromethyl)pyridin-2-yl]-1,8-naphthyridin-4-amine]",≤ 1
15,"CCCCNc1cc(Nc2ccc(C(C)(C)C)cc2)c2ccc(-c3ncccc3C(F)(F)F)cc2n1 [Compound 27, N~2~-butyl-N~4~-(4-tert-butylphenyl)-7-[3-(trifluoromethyl)pyridin-2-yl]quinoline-2,4-diamine]",≤ 1
16,"FC(F)(F)c1ccc(Nc2ccnc3nc(-c4ncccc4C(F)(F)F)ccc23)nc1 [Compound 106, 7-[3-(trifluoromethyl)pyridin-2-yl]-N-[5-(trifluoromethyl)pyridin-2-yl]-1,8-naphthyridin-4-amine]",≤ 1
17,"FC(F)(F)c1cnc(Nc2ccnc3nc(-c4ncccc4C(F)(F)F)ccc23)cn1 [Compound 131, N-[5-(trifluoromethyl)pyrazin-2-yl]-7-[3-(trifluoromethyl)pyridin-2-yl]-1,8-naphthyridin-4-amine]",≤ 1
18,"C[C@@H]1CN(Cc2cc(Nc3ccc(C(F)(F)F)cc3)c3ccc(-c4ncccc4C(F)(F)F)nc3n2)C[C@H](C)O1 [Compound 24, 2-{[(2R,6S)-2,6-dimethylmorpholin-4-yl]methyl}-N-[4-(trifluoromethyl)phenyl]-7-[3-(trifluoromethyl)pyridin-2-yl]-1,8-naphthyridin-4-amine]",≤ 1
19,"CC1CCCN1Cc1cc(Nc2ccc(C(F)(F)F)cc2)c2ccc(-c3ncccc3C(F)(F)F)nc2n1 (stereo not drawn) [Compound 49, 2-[(2-methylpyrrolidin-1-yl)methyl]-N-[4-(trifluoromethyl)phenyl]-7-[3-(trifluoromethyl)pyridin-2-yl]-1,8-naphthyridin-4-amine]",≤ 1
20,"FC(F)(F)c1ccc(Nc2ccnc3nc(-c4ncccc4C(F)(F)F)cnc23)nc1 [Compound 113, 3-[3-(trifluoromethyl)pyridin-2-yl]-N-[5-(trifluoromethyl)pyridin-2-yl]pyrido[2,3-b]pyrazin-8-amine]",≤ 1
21,"CCCc1cc(Nc2ccc(Cl)cn2)c2ccc(-c3ncccc3C(F)(F)F)nc2n1 [Compound 122, N-(5-chloropyridin-2-yl)-2-propyl-7-[3-(trifluoromethyl)pyridin-2-yl]-1,8-naphthyridin-4-amine]",≤ 1

# Results, then the molecule that gave them:
row,IC50 [µM],SMILES
1,≤ 1,"FC(F)(F)c1ccc(Nc2cc(CN3CCOCC3)nc3nc(-c4ncccc4C(F)(F)F)ccc23)nc1 [Compound 91, 2-(morpholin-4-ylmethyl)-7-[3-(trifluoromethyl)pyridin-2-yl]-N-[5-(trifluoromethyl)pyridin-2-yl]-1,8-naphthyridin-4-amine]"
2,≤ 1,"CC(C)c1cc(Nc2ccc(C(C)(C)O)cn2)c2ccc(-c3ncccc3C(F)(F)F)nc2n1 [Compound 118, 2-[6-({2-isopropyl-7-[3-(trifluoromethyl)pyridin-2-yl]-1,8-naphthyridin-4-yl}amino)pyridin-3-yl]propan-2-ol]"
3,≤ 1,"COCc1nc2nc(-c3ncccc3C(F)(F)F)ccc2c(Nc2ccc(C(F)(F)F)cc2)c1C(=O)O [Compound 6, 2-(methoxymethyl)-4-{[4-(trifluoromethyl)phenyl]amino}-7-[3-(trifluoromethyl)pyridin-2-yl]-1,8-naphthyridine-3-carboxylic acid]"
4,≤ 1,"CN(CC(=O)O)Cc1cc(Nc2ccc(C(F)(F)F)cc2)c2ccc(-c3ncccc3C(F)(F)F)nc2n1 [Compound 76, N-methyl-N-({4-{[4-(trifluoromethyl)phenyl]amino}-7-[3-(trifluoromethyl)pyridin-2-yl]-1,8-naphthyridin-2-yl}methyl)glycine]"
5,≤ 1,"CCCc1cc(Nc2ccc(CC)cn2)c2ccc(-c3ncccc3C(F)(F)F)nc2n1 [Compound 128, N-(5-ethylpyridin-2-yl)-2-propyl-7-[3-(trifluoromethyl)pyridin-2-yl]-1,8-naphthyridin-4-amine]"
6,≤ 1,"NC(=O)c1cc(Nc2ccc(C(F)(F)F)cn2)c2ccc(-c3ncccc3C(F)(F)F)nc2n1 [Compound 126, 7-[3-(trifluoromethyl)pyridin-2-yl]-4-{[5-(trifluoromethyl)pyridin-2-yl]amino}-1,8-naphthyridine-2-carboxamide]"
7,≤ 1,"CN(C)CCOCc1cc(Nc2ccc(C(F)(F)F)cc2)c2ccc(-c3ncccc3C(F)(F)F)nc2n1 [Compound 25, 2-{[2-(dimethylamino)ethoxy]methyl}-N-[4-(trifluoromethyl)phenyl]-7-[3-(trifluoromethyl)pyridin-2-yl]-1,8-naphthyridin-4-amine]"
8,≤ 1,"CC(C)(O)COCc1cc(Nc2ccc(C(F)(F)F)cc2)c2ccc(-c3ncccc3C(F)(F)F)nc2n1 [Compound 82, 2-methyl-1-({4-{[4-(trifluoromethyl)phenyl]amino}-7-[3-(trifluoromethyl)pyridin-2-yl]-1,8-naphthyridin-2-yl}methoxy)propan-2-ol]"
9,≤ 1,"COCc1cc(Nc2ccc3c(c2)NCCC3(C)C)c2ccc(-c3ncccc3C(F)(F)F)nc2n1 [Compound 16, N-(4,4-dimethyl-1,2,3,4-tetrahydroquinolin-7-yl)-2-(methoxymethyl)-7-[3-(trifluoromethyl)pyridin-2-yl]-1,8-naphthyridin-4-amine]"
10,≤ 1,"Cc1cccnc1-c1ccc2c(Nc3ccc(C(F)(F)F)cn3)ccnc2n1 [Compound 135, 7-(3-methylpyridin-2-yl)-N-[5-(trifluoromethyl)pyridin-2-yl]-1,8-naphthyridin-4-amine]"
11,≤ 1,"COC(C)c1cc(Nc2ccc(C(C)=O)cn2)c2ccc(-c3ncccc3C(F)(F)F)nc2n1 (stereo not drawn) [Compound 120, 1-[6-({2-(1-methoxyethyl)-7-[3-(trifluoromethyl)pyridin-2-yl]-1,8-naphthyridin-4-yl}amino)pyridin-3-yl]ethanone]"
12,≤ 1,"CCOc1cc(Nc2ccc(C(C)C)cc2)c2ccc(-c3ncccc3C(F)(F)F)nc2n1 [Compound 38, 2-ethoxy-N-(4-isopropylphenyl)-7-[3-(trifluoromethyl)pyridin-2-yl]-1,8-naphthyridin-4-amine]"
